Where two headings read alike, the source gives them in different places. Some results are limits rather than exact numbers.

One test concerns NUGC4 (P53 WT). Kind of test: Cell viability assay (CellTiter-Glo, 6 days), NUGC4. The test is classed as cell-based. Particulars: Homo sapiens, NUGC-4, 144 h; cell viability, 6 days, CellTiter-Glo; read-out: NUGC4 (P53 WT) IC50. The method in brief: (§1)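 After a 6-day compound exposure following overnight plating, ATP luminescence (CellTiter-Glo) gave percent viability relative to DMSO-treated cells and cell-free medium controls. IC50 = concentration at 50% viability, from 4-parameter logistic or Excel fit.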
In general terms: ATP-based viability assays read luminescence as a measure of living cells.

For test [1], the system named is NUGC-3_P53_Luc single clonal cell line (p53 Y220C). In words: Reporter gene assay (p53 RE luciferase). Format: cell-based. Particulars: Homo sapiens, luciferase reporter, 6 hours, normalized to Ref-1a (10 μM) high control, read-out: p53(Y220C)_NUGC-3 EC50. In a few lines:
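Luminescence normalised to DMSO-only (0%) and 10 μM Ref-1a (100%) wells gives % activity, fitted by 4-parameter logistic or Excel to yield EC50 at 50%. Reporter line: NUGC-3 with p53 response element-luc2P, compound-treated 6 h at 37 °C.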
(In general: Reporter assays use an easily measured gene product as a stand-in for the process of interest.)

A further test relates to NUGC3 (P53 Y220C). Kind of test: Cell viability assay (CellTiter-Glo, 6 days), NUGC3. The test is classed as cell-based. Particulars: Homo sapiens, NUGC-3, 144 h; cell viability, 6 days, CellTiter-Glo; read-out: NUGC3 (P53 Y220C) IC50. The method in brief:
as §1

The target in test [2] is T1, His-p53 Y220C (94-294) protein (Homo sapiens, UniProt P04637, Y220C).
T1 construct: His-p53 Y220C (94-294) protein
Kind of test: In vitro DNA binding assay (HTRF). The test is classed as biochemical. Particulars: % activation normalized to 2 μM Ref-1a high control.

As for `COc1cc(P(C)(C)=O)ccc1NCC#Cc1sc2c(NC3CCN(C4CCOCC4)CC3)cccc2c1CC(F)(F)F` [Example 154, (3-methoxy-4-((3-(7-((1-(tetrahydro-2H-pyran-4-yl)piperidin-4-yl)amino)-3-(2,2,2-trifluoroethyl)benzo[b]thiophen-2-yl)prop-2-yn-1-yl)amino)phenyl)dimethylphosphine oxide], the IC50 (usually the midpoint of a concentration-inhibition curve) in the test with NUGC4 (P53 WT) was determined as 4190 nM; in the test with NUGC3 (P53 Y220C) it was 1890 nM. The results for the EC50 in test [1] (NUGC-3) and in test [2] were 410 nM and 67 nM, respectively.
Regarding `COc1cc(P(C)(C)=O)ccc1NCC#Cc1sc2c(N[C@@H]3CCN(C4CCOC4)C[C@@H]3F)cccc2c1CC(F)(F)F` (stereo partly drawn) [Example 157, (4-((3-(7-(((3S,4R)-3-fluoro-1-(tetrahydrofuran-3-yl)piperidin-4-yl)amino)-3-(2,2,2-trifluoroethyl)benzo[b]thiophen-2-yl)prop-2-yn-1-yl)amino)-3-methoxyphenyl)dimethylphosphine oxide], the values for the IC50 in the test on NUGC4 (P53 WT) and in the test with NUGC3 (P53 Y220C) were 4840 nM and 530 nM, respectively. The EC50 (in general, the midpoint of the concentration-response curve) in test [1] (NUGC-3) was 110 nM; in test [2], 68 nM.
For the molecule `COc1cc(P(C)(C)=O)ccc1NCC#Cc1sc2c(N[C@@H]3CCN(C)C[C@@H]3Cl)cccc2c1CC(F)(F)F` [Example 158, (3S,4R)-3-chloro-N-[2-[3-(4-dimethylphosphoryl-2-methoxy-anilino)prop-1-ynyl]-3-(2,2,2-trifluoroethyl)benzothiophen-7-yl]-1-methyl-piperidin-4-amine], the figures for the concentration for half-maximal inhibition (IC50) in the test on NUGC4 (P53 WT) and in the test with NUGC3 (P53 Y220C) were 3950 nM and 370 nM, respectively. For the same molecule, the EC50 worked out at 90 nM in test [1] (NUGC-3, 6 h) and 30 nM in test [2].
For `CNC(=O)c1cc(NCC#Cc2sc3c(N[C@@H]4CCN(C5CCOCC5)C[C@@H]4F)cccc3c2CC(F)(F)F)c(OC)cc1P(C)(C)=O` [Example 160, 2-dimethylphosphoryl-5-[3-[7-[[(3S,4R)-3-fluoro-1-tetrahydropyran-4-yl-4-piperidyl]amino]-3-(2,2,2-trifluoroethyl)benzothiophen-2-yl]prop-2-ynylamino]-4-methoxy-N-methyl-benzamide], the 50% inhibitory concentration (IC50) in the test on NUGC4 (P53 WT) was over 50000 nM; in the test on NUGC3 (P53 Y220C), 1410 nM. The figures for the 50% effective concentration (EC50) in test [1] (NUGC-3) and in test [2] were 190 nM and 41 nM, respectively.
Consider `CP(C)(=O)c1ccc(NCC#Cc2sc3c(N[C@@H]4CCN(C5CCOCC5)C[C@@H]4F)cccc3c2CC(F)(F)F)c(OC2CC2)c1` [Example 161, (3-cyclopropoxy-4-((3-(7-(((3S,4R)-3-fluoro-1-(tetrahydro-2H-pyran-4-yl)piperidin-4-yl)amino)-3-(2,2,2-trifluoroethyl)benzo[b]thiophen-2-yl)prop-2-yn-1-yl)amino)phenyl)dimethylphosphine oxide], for which the half-maximal inhibitory concentration (IC50) in the test with NUGC4 (P53 WT) was 12900 nM; with NUGC3 (P53 Y220C) it was 1150 nM. The EC50 in test [1] (NUGC-3) stood at 120 nM; in test [2] it was 73 nM.
For `CN1CC[C@@H](Nc2cccc3c(CC(F)(F)F)c(C#CCNc4ccc(P(C)(C)=O)c5c4OCO5)sc23)[C@@H](F)C1` [Example 163, (7-((3-(7-(((3S,4R)-3-fluoro-1-methylpiperidin-4-yl)amino)-3-(2,2,2-trifluoroethyl)benzo[b]thiophen-2-yl)prop-2-yn-1-yl)amino)benzo[d][1,3]dioxol-4-yl)dimethylphosphine oxide], the values for the concentration for half-maximal inhibition (IC50) in the test on NUGC4 (P53 WT) and with NUGC3 (P53 Y220C) were 3820 nM and 1210 nM, respectively. The values for the EC50 in test [1] (NUGC-3) and in test [2] were 180 nM and 50 nM, respectively.
Taken in the same sequence, the figures for `CN1CC[C@@H](Nc2cccc3c(CC(F)(F)F)c(C#CCOc4ccc(P(C)(C)=O)cc4C(N)=O)sc23)[C@@H](F)C1` [Example 165, 5-(dimethylphosphoryl)-2-((3-(7-(((3S,4R)-3-fluoro-1-methylpiperidin-4-yl)amino)-3-(2,2,2-trifluoroethyl)benzo[b]thiophen-2-yl)prop-2-yn-1-yl)oxy)benzamide] were over 50000 nM, 20500 nM, 4220 nM and 48 nM.
For the molecule `COc1cc(-c2ncn(C)n2)ccc1NCC#Cc1sc2c(N[C@@H]3CCN(C)C[C@@H]3F)cccc2c1CC(F)(F)F` [Example 172, (3S,4R)-3-fluoro-N-(2-(3-((2-methoxy-4-(1-methyl-1H-1,2,4-triazol-3-yl)phenyl)amino)prop-1-yn-1-yl)-3-(2,2,2-trifluoroethyl)benzo[b]thiophen-7-yl)-1-methylpiperidin-4-amine], the figures for the IC50 in the test with NUGC4 (P53 WT) and in the test on NUGC3 (P53 Y220C) were 7550 nM and 1510 nM, respectively. In addition, the results for the half-maximal effective concentration (EC50) in test [1] (NUGC-3) and in test [2] were 180 nM and 60 nM, respectively.
As to `[2H]C([2H])([2H])Oc1cc(P(C)(C)=O)ccc1NCC#Cc1sc2c(N[C@@H]3CCN(C)C[C@@H]3F)cccc2c1CC(F)(F)F` [Example 174, (4-((3-(7-(((3S,4R)-3-fluoro-1-methylpiperidin-4-yl)amino)-3-(2,2,2-trifluoroethyl)benzo[b]thiophen-2-yl)prop-2-yn-1-yl)amino)-3-(methoxy-d3)phenyl)dimethylphosphine oxide], the figures for the IC50 in the test on NUGC4 (P53 WT) and in the test with NUGC3 (P53 Y220C) were 5930 nM and 350 nM, respectively. Also, the half-maximal effective concentration (EC50) in test [1] (NUGC-3) was found to be 60 nM; in test [2], 15 nM.
Consider `CN1CC[C@@H](Nc2cccc3c(CC(F)(F)F)c(C#CCNc4ccc(P(C)(C)=O)cc4S(C)(=O)=O)sc23)[C@@H](F)C1` [Example 175, (4-((3-(7-(((3S,4R)-3-fluoro-1-methylpiperidin-4-yl)amino)-3-(2,2,2-trifluoroethyl)benzo[b]thiophen-2-yl)prop-2-yn-1-yl)amino)-3-(methylsulfonyl)phenyl)dimethylphosphine oxide], for which the 50% inhibitory concentration (IC50) was determined as 35200 nM with NUGC4 (P53 WT) and 3550 nM in the test with NUGC3 (P53 Y220C). Further, the EC50 in test [1] (NUGC-3) is 640 nM; in test [2] it was 66 nM.
Taken in the same sequence, the figures for `COc1cc(P(C)(C)=O)ccc1NCC#Cc1sc2c(N[C@@H]3CCN(C4CC5CCC(C4)O5)C[C@@H]3F)cccc2c1CC(F)(F)F` (stereo partly drawn) [Example 180, (4-((3-(7-(((3S,4R)-1-(8-oxabicyclo[3.2.1]octan-3-yl)-3-fluoropiperidin-4-yl)amino)-3-(2,2,2-trifluoroethyl)benzo[b]thiophen-2-yl)prop-2-yn-1-yl)amino)-3-methoxyphenyl)dimethylphosphine oxide] were 5890 nM, 910 nM, 110 nM and 50 nM.
Taken in the same sequence, the figures for `COc1cc(P(C)(C)=O)ccc1NCC#Cc1sc2c(NC3CC4CN(C)CC4C3)cccc2c1CC(F)(F)F` (stereo not shown) [Example 182] were 3740 nM, 2030 nM, 480 nM and 58 nM.
With `[2H]C([2H])([2H])Oc1cc(P(C)(C)=O)ccc1NCC#Cc1sc2c(N[C@@H]3CCN(C4CCOCC4)C[C@@H]3F)cccc2c1CC(F)(F)F` [Example 184, (4-((3-(7-(((3S,4R)-3-fluoro-1-(tetrahydro-2H-pyran-4-yl)piperidin-4-yl)amino)-3-(2,2,2-trifluoroethyl)benzo[b]thiophen-2-yl)prop-2-yn-1-yl)amino)-3-(methoxy-d3)phenyl)dimethylphosphine oxide], the half-maximal inhibitory concentration (IC50) with NUGC4 (P53 WT) was 4460 nM; with NUGC3 (P53 Y220C) it was 440 nM. In addition, the concentration giving a half-maximal response (EC50) in test [1] (NUGC-3) was 100 nM; in test [2], 42 nM.

(Values after US20240400591A1 (Jacobio Pharmaceuticals Co., Ltd., priority 2021, published 2024).)
